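Following 48 hours of exposure in 96-well plates, responses at five concentrations were used to interpolate endpoints linearly. The concentration for 50% growth inhibition is given as GI50.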 Calls of active or inactive are those of the source. Rule as the data show it: active = GI50 up to about 1.1 µM and inactive = higher.
Experiments:
Test in all cases: NCI tumour cell line growth inhibition, 48 h
[1] = system: DU-145
[2] = system: Hs-578T
[3] = system: MDA-MB-231
[4] = system: MDA-MB-435
[5] = system: MDA-N
[6] = system: PC-3
[7] = system: T47D
[8] = system: LXFL 529
[9] = system: RXF 631

| SMILES | GI50 [1] | GI50 [2] | GI50 [3] | GI50 [4] | GI50 [5] | GI50 [6] | GI50 [7] | GI50 [8] | GI50 [9] |
| --- | --- | --- | --- | --- | --- | --- | --- | --- | --- |
| O=C(O)c1cccc2cccc(-c3c4ccc(=O)cc-4oc4cc(O)ccc34)c12 | > 100 µM (inactive) | 93.1 µM (inactive) | 81.1 µM (inactive) | > 100 µM (inactive) | 71 µM (inactive) | > 100 µM (inactive) | > 100 µM (inactive) |  |  |
| O=C1Nc2ccc(S(=O)(=O)N(CCO)CCO)cc2/C1=C1/Nc2ccccc2C1=O | 13.3 µM (inactive) | > 100 µM (inactive) | 40.5 µM (inactive) | > 100 µM (inactive) | > 100 µM (inactive) | 30.3 µM (inactive) | 0.679 µM (active) |  |  |
| CC1OC(OC2C(OC(=O)[C@@H]3CC(C)(C)C[C@H]4C5=CC[C@@H]6[C@@]7(C)C[C@H](O)[C@H](OC8OC(CO)C(O)C(O)C8O)[C@@](C)(CO)[C@@H]7[C@H](O)C[C@@]6(C)[C@]5(C)CC[C@@]34C)OCC(O)C2O)C(O)C(O)C1O (some centres undefined) | > 7.5 µM (inactive) | > 7.5 µM (inactive) | > 7.5 µM (inactive) | > 7.5 µM (inactive) | > 7.5 µM (inactive) | > 7.5 µM (inactive) | > 7.5 µM (inactive) |  |  |
| C=CC(OCC)(OCC)OCC |  |  |  |  |  |  |  | 77.3 µM (inactive) | > 100 µM (inactive) |
| CC(=O)N/C(=C\c1ccc(/C=C(\NC(C)=O)C2=NC3C(=O)c4ccccc4C(=O)C3N2)cc1)C1=NC2C(=O)c3ccccc3C(=O)C2N1 (centres undefined) |  |  |  |  |  |  |  | 42.4 µM (inactive) | 19.7 µM (inactive) |
| O=C1c2ccccc2C(=O)c2c1ccc1c2N=C(c2ccc(F)cc2)CC(c2ccc(Cl)c(Cl)c2)N1 (centres undefined) |  |  |  |  |  |  |  | 16 µM (inactive) |  |
| NC(=O)Nc1cc(O)ccc1/N=N/c1ccc(S(=O)(=O)Nc2ccccn2)cc1 |  |  |  |  |  |  |  | > 100 µM (inactive) |  |
| COc1ccc(/C=C2\Oc3cc(OC(C)=O)ccc3C2=O)cc1 | > 100 µM (inactive) | > 100 µM (inactive) | > 100 µM (inactive) | > 100 µM (inactive) | 76.2 µM (inactive) | > 100 µM (inactive) | > 100 µM (inactive) |  |  |
| Cc1cc(NS(=O)(=O)c2ccc(Nc3c4ccccc4nc4c(C(=O)N5CCN(CCO)CC5)ccc(Cl)c34)cc2)no1 |  |  |  |  |  |  |  |  | 83.9 µM (inactive) |
| COc1cc(OC)c(SSCCCCS(=O)O)c(OC)c1 |  |  |  |  |  |  |  | 12.2 µM (inactive) | > 10 µM (inactive) |
| O=C1/C(=C/c2ccc(Cl)cc2)CNC/C1=C\c1ccc(Cl)cc1 | 2.65 µM (inactive) | 3.47 µM (inactive) | 2.88 µM (inactive) | 2.82 µM (inactive) | 2.71 µM (inactive) | 2.97 µM (inactive) | 5 µM (inactive) |  |  |

— ChEMBL document CHEMBL1201862, “PubChem BioAssay data set” (2004)
